{
  "source": "paper doi:10.1101/2025.05.12.653380v2",
  "about": "(biorxiv, 2026)",
  "molecular_target": "T1, HPC (helicase-primase complex) of HHV1, UL5-UL52-UL8 (Human alphaherpesvirus 1 strain 17, UniProt P10189+P10236)",
  "T1 sequence (P10189 1-882)": "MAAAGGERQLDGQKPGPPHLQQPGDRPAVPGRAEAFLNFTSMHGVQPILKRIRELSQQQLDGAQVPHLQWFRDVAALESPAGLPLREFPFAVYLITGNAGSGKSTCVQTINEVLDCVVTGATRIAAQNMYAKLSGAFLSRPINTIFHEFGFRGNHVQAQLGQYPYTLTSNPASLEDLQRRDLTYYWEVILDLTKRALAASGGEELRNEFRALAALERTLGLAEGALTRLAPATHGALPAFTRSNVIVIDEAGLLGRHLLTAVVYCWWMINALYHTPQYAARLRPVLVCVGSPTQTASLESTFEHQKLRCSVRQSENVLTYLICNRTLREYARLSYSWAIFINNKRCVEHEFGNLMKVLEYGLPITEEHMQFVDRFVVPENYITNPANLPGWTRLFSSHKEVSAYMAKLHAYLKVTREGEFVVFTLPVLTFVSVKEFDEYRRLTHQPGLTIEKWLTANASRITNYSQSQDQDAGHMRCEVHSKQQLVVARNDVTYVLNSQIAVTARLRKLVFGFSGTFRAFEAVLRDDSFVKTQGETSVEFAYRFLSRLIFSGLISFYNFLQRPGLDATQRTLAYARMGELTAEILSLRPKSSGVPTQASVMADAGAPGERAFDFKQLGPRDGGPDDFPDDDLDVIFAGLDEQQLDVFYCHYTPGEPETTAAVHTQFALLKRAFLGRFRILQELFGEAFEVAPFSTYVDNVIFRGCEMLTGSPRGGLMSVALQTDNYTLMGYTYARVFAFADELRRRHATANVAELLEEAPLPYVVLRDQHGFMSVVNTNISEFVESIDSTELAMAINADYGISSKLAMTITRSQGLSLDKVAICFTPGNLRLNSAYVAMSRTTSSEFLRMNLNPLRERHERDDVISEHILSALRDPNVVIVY",
  "T1 sequence (P10236 1-1058)": "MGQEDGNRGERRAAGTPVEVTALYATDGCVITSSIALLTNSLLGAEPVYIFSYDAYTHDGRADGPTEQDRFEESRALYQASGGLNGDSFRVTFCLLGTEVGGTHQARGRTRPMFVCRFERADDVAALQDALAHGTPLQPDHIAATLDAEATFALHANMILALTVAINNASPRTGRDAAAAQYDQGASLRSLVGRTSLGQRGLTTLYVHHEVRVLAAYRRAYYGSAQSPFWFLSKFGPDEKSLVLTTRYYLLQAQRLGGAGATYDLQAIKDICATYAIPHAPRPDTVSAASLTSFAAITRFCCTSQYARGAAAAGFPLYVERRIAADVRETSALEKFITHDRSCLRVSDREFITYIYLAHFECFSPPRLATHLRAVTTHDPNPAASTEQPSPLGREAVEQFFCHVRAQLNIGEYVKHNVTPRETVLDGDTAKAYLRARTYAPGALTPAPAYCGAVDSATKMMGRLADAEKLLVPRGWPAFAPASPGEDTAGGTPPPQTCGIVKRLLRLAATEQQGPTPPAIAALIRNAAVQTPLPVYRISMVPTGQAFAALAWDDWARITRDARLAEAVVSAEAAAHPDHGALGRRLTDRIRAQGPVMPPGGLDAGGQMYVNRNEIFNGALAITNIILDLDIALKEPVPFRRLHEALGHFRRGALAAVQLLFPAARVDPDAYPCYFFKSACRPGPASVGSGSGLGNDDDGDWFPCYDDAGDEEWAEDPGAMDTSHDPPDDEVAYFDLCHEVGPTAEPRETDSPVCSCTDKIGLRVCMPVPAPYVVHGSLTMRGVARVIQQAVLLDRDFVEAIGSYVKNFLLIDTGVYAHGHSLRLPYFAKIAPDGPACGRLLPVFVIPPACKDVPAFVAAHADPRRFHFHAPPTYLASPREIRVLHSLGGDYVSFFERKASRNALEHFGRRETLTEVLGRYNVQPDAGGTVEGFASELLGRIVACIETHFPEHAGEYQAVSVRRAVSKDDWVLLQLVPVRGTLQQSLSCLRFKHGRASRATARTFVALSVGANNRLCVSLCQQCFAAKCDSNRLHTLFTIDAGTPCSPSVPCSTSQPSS",
  "T1 sequence (P10192 1-750 partner)": "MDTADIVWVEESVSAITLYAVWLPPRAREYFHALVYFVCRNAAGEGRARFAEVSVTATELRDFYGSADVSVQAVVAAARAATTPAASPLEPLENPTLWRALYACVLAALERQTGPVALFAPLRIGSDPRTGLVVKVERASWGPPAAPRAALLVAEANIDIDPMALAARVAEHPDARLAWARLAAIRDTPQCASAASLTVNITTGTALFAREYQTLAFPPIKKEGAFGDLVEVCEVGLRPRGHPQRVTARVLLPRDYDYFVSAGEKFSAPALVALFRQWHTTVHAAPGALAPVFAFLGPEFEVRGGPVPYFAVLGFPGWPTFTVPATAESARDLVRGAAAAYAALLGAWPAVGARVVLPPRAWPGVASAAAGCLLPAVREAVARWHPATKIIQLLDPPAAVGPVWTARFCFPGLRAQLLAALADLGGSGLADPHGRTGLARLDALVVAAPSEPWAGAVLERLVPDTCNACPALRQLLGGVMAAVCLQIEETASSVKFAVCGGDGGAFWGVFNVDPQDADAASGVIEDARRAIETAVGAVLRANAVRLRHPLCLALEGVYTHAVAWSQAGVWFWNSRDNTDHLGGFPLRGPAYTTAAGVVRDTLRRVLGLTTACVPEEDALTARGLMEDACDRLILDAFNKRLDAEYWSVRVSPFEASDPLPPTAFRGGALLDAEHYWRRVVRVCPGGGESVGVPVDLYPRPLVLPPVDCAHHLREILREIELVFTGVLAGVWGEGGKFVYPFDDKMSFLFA",
  "experiment": "NADH-coupled ATPase assay, Morrison fit of Kiapp, mixed inhibition model",
  "assay_type": "biochemical",
  "data": [
    {"smiles": "Cc1cccc(C)c1N(CC(=O)Nc1ccc(-c2ncon2)cc1)C(=O)C1CCS(=O)(=O)CC1", "note": "[amenamevir]", "values": [
      {"measurement": "Ki", "result": "1.84 ± 0.16", "unit": "nM"}
    ]},
    {"smiles": "Cc1nc(N(C)C(=O)Cc2ccc(-c3ccccn3)cc2)sc1S(N)(=O)=O", "note": "[pritelivir]", "values": [
      {"measurement": "Ki", "result": "1.99 ± 0.18", "unit": "nM"}
    ]}
  ]
}
